Active and inactive are the calls of the source.
How the values were obtained:
[1] = HEp-2 cell cytotoxicity, dose response, cytotoxicity control for RSV inhibitor project, HTS (AID 2410); assay type: functional; conditions: human respiratory syncytial virus
Vasopressin V1a receptor = Vasopressin V1a receptor (Homo sapiens, UniProt P37288); assay: Counterscreen for Oxytocin Receptor (OXTR) agonists: Fluorescence-based cell-based high throughput dose response assay to identify agonists of the vasopressin 1 receptor (V1R). [Related pubchem assays: 2435 (Primary screen (OXTR agonists in singlicate)), 434991 (Counterscreen (V1R agonists in triplicate)), 2482 (Summary (OXTR agonists)) …; assay type: functional
Oxytocin receptor = Oxytocin receptor (Homo sapiens, UniProt P30559); assay: Fluorescence-based cell-based high throughput dose response assay for agonists of the Oxytocin Receptor (OXTR). [Related pubchem assays: 2435 (Primary screen (OXTR agonists in singlicate)), 434991 (Counterscreen (V1R agonists in triplicate)), 2482 (Summary (OXTR agonists)), 434963 (Confirmation screen (OXTR agonists in triplicate))]; assay type: functional
[2] = biological target: T1, Corticotropin-releasing factor receptor 2/Corticotropin-releasing factor-binding protein (Homo sapiens, UniProt P24387+Q13324); assay: activators of CRF receptor 2 with binding protein – uHTS hits, confirmation (AID 602473); assay type: functional; conditions: read-out: EC50_Mean
T1 sequence (Q13324 whole entry): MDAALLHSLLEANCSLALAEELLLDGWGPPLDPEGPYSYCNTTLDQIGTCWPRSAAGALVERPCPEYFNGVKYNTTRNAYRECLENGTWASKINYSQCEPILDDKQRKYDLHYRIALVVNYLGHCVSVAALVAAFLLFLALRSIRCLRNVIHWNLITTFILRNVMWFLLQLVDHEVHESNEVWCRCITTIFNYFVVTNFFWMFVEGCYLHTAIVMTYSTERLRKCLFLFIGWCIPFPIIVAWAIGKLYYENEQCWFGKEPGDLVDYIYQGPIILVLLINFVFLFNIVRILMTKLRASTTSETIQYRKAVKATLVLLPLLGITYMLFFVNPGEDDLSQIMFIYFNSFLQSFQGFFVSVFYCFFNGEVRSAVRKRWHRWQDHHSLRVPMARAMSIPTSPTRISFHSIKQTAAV
T1 sequence (P24387 whole entry): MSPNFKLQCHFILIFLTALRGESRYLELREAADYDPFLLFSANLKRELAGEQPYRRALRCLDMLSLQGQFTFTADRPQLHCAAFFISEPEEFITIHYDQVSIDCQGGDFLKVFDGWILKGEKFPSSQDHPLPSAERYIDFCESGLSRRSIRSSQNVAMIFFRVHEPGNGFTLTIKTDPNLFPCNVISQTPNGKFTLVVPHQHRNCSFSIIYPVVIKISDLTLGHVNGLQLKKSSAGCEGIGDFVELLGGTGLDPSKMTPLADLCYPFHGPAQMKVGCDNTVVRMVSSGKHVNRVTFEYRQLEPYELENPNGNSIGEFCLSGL

[3] = Vero cell cytotoxicity, dose response, cytotoxicity control for Vif-APOBEC3G degradation inhibitor project, Vero cells (AID 1117358); assay type: functional; conditions: Human immunodeficiency virus 1, Vero
[4] = biological target: Serine/threonine-protein phosphatase PP1-alpha catalytic subunit (Homo sapiens, UniProt P62136); assay: PP1 phosphatase inhibitors, dose response, biochemical, fluorescence (AID 2403);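 also: phosphatase turnover of OMFP into fluorescent 3-O-methylfluorescein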
[5] = biological target: T2, Serine/threonine-protein phosphatase (Homo sapiens, UniProt Q9BPW0); assay: Counterscreen for inhibitors of PP1: fluorescence-based biochemical high throughput dose response assay to identify inhibitors of Protein Phosphatase 5 (PP5). [Related pubchem assays: 2034 (Summary (PP5 inhibitors)), 1987 (PP5 inhibitors in singlate), 2235 (PP1 inhibitors in singlate)]
T2 sequence (Q9BPW0 whole entry): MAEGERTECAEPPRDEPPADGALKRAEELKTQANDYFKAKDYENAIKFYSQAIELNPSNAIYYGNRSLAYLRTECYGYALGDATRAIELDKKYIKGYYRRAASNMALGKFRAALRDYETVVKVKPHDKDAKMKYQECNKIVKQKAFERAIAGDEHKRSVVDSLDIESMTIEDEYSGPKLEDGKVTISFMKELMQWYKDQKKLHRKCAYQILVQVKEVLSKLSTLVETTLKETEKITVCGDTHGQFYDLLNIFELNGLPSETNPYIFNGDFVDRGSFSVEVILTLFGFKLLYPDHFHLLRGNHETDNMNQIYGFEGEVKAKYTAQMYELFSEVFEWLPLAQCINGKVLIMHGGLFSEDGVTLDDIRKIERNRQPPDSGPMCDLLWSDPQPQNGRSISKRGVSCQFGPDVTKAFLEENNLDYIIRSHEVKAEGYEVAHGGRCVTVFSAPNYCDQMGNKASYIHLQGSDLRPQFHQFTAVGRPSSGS

Nonstructural protein 1 = Nonstructural protein 1 (Influenza A virus, UniProt Q194T2); assay type: functional, Influenza A virus (A/California/07/2009(H1N1))
[6] = biological target: G2/mitotic-specific cyclin-B1 (Homo sapiens, UniProt P14635); assay: Counterscreen assay for inhibitors of Wee1 degradation: dose response cell-based assay to identify inhibitors of cyclin B degradation. [Related pubchem assays: 1410, 1321 ]; assay type: functional
Wee1-like protein kinase = Wee1-like protein kinase (Homo sapiens, UniProt P30291); assay: Dose Response Cell-based Assay for Inhibitors of Wee1 Degradation. [Related pubchem assays: 1410, 1321 ]; assay type: functional
[7] = THP-1 cell cytotoxicity, dose response, cytotoxicity control for non-replicating M. tuberculosis project (AID 489025); assay type: functional
[8] = Vero E6 cell cytotoxicity, dose response, cytotoxicity control for non-replicating M. tuberculosis project, secondary assay (AID 492998); assay type: functional, VeroE6; conditions: Vero C1008
[9] = cytotoxicity in HEK-293T cells, dose response, cytotoxicity control for TCR NF-kB inhibitor project, luminescence, T-cell screen hits (AID 489026); assay type: functional, cell-based;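 also: cells exposed to compound about 14 hours before the viability readout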
cells = assay type: functional
Aminopeptidase N = biological target: T3, Aminopeptidase N (Plasmodium falciparum FcB1/Columbia, UniProt O96935); assay: P. falciparum M1AAP inhibitors, biochemical, fluorogenic H-Leu-NHMec substrate, 1536-well (AID 1445); parameters: species or system Plasmodium falciparum 3D7, 3D7
T3 sequence (O96935 whole entry): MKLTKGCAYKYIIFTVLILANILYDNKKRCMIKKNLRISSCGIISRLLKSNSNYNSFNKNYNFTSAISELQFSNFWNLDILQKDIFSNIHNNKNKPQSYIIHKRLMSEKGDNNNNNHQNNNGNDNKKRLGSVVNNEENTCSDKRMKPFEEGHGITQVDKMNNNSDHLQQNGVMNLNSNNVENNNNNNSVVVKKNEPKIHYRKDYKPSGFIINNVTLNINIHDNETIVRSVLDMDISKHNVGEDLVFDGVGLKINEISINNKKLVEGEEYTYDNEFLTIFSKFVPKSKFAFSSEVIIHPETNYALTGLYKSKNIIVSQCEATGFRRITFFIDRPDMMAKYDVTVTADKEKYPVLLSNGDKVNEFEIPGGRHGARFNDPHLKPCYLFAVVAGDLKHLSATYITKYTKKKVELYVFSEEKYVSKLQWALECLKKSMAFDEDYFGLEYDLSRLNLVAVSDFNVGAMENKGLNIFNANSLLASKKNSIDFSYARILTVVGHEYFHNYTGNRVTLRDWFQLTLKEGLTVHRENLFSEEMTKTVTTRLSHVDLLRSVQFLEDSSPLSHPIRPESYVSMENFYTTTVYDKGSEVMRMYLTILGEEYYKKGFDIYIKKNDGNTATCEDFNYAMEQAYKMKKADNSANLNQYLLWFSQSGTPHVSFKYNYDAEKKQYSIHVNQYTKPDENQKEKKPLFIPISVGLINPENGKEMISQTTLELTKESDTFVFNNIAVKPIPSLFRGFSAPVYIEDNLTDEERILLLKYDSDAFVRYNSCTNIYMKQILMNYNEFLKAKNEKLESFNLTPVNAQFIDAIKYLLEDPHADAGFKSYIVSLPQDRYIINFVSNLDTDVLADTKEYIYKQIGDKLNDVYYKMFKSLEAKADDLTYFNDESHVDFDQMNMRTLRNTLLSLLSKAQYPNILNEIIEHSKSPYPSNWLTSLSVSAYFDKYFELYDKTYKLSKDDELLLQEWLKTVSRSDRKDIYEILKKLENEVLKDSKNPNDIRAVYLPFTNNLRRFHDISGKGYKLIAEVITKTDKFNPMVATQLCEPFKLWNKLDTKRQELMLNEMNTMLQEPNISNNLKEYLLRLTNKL

[10] = HIV-1 Env-mediated cell fusion inhibitors, dose response, CCR5-tropic Env (AID 2279); assay type: functional
Cysteine protease ATG4B = biological target: T4, Cysteine protease ATG4B (Homo sapiens, UniProt Q9Y4P1); assay type: functional;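 also: Fluorescence-based dose-response confirmation assay measuring inhibition of ATG4B activity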
T4 sequence (Q9Y4P1 whole entry): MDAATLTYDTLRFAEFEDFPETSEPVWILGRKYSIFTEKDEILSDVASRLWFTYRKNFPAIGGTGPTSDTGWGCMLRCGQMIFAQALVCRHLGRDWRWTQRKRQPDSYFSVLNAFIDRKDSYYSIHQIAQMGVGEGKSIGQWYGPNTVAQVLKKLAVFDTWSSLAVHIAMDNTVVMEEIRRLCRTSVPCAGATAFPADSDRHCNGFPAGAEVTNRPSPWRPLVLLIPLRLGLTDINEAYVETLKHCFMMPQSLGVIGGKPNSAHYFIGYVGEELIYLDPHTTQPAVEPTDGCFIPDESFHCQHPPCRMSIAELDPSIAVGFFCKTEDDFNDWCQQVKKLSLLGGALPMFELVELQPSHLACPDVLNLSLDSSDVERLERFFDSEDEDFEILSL

Phospholipase A2 = Phospholipase A2 (Homo sapiens, UniProt P04054); assay type: functional;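 also: confirmatory dose-response counterscreen on phospholipase A2, testing hits that came from an ultra-high-throughput screen for ATG4B inhibitors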
[11] = biological target: T1, Corticotropin-releasing factor receptor 2/Corticotropin-releasing factor-binding protein; assay: Dose Response confirmation of uHTS hits for small molecule antagonists of the CRF-binding protein and CRF-R2 receptor complex.; assay type: functional; conditions: read-out: IC50_Mean
[12] = CRF-BP/CRF-R2 complex antagonists, dose response, cell-based, uHTS hits, 384-well (AID 651639); assay type: functional, Homo sapiens; conditions: read-out: IC50_Mean
NS3 = NS3 (Hepatitis C virus, UniProt A3EZJ3); assay: PubChem AID 2173; parameters: species or system Hepacivirus hominis
[13] = M. tuberculosis growth inhibition, HTS (AID 449762); assay type: functional
[14] = biological target: T5, Heat shock factor protein 1 (Mus musculus, UniProt P38532); assay: HSF1 potentiators in luciferase reporter cells, confirmation, cell-based, NIH3T3, luminescence, dose retest (AID 435004); assay type: functional;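 also: stress induced by proteasome inhibitor MG132 added 30 min after compound; luciferase reporter driven by HSF1 response element in NIH3T3 cells; actives raise luminescence as potentiators of the MG132 stress response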
T5 sequence (P38532 whole entry): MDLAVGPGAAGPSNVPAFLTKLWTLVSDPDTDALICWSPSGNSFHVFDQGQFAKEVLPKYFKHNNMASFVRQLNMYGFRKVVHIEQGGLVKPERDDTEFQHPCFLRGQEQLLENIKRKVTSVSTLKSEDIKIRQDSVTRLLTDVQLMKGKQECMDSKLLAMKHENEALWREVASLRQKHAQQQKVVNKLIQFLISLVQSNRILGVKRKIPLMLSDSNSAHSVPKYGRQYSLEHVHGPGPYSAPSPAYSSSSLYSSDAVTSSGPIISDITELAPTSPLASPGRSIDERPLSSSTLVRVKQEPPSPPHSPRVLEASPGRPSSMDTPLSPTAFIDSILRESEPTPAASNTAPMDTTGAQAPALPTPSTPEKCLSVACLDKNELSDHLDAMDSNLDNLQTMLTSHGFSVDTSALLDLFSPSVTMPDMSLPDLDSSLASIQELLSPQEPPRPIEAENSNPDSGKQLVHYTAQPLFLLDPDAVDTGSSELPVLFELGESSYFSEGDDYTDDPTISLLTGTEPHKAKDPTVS

Sequence of NS3 (A3EZJ3 whole entry): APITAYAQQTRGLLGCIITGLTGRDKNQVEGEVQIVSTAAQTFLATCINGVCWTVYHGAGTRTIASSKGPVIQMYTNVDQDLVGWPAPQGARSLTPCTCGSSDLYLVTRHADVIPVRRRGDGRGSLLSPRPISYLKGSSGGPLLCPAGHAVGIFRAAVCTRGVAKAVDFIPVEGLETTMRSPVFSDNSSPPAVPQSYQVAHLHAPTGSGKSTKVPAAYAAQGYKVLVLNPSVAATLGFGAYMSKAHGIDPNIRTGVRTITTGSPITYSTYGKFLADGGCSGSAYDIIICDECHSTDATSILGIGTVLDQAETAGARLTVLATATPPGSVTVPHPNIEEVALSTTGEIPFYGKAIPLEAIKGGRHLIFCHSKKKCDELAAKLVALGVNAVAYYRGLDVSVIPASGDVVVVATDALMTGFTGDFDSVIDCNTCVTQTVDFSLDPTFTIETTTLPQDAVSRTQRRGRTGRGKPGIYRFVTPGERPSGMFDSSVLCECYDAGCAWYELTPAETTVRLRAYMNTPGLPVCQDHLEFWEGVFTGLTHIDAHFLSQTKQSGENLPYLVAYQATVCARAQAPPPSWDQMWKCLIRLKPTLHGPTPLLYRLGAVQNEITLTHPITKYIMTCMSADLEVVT
Sequence of Nonstructural protein 1 (Q194T2 whole entry): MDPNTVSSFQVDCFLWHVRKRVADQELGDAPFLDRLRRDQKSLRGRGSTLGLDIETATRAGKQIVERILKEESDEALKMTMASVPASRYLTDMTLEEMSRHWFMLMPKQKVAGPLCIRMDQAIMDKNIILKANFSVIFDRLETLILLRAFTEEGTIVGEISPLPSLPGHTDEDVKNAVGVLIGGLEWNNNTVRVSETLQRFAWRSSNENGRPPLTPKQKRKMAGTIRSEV
Sequence of Wee1-like protein kinase (P30291 whole entry): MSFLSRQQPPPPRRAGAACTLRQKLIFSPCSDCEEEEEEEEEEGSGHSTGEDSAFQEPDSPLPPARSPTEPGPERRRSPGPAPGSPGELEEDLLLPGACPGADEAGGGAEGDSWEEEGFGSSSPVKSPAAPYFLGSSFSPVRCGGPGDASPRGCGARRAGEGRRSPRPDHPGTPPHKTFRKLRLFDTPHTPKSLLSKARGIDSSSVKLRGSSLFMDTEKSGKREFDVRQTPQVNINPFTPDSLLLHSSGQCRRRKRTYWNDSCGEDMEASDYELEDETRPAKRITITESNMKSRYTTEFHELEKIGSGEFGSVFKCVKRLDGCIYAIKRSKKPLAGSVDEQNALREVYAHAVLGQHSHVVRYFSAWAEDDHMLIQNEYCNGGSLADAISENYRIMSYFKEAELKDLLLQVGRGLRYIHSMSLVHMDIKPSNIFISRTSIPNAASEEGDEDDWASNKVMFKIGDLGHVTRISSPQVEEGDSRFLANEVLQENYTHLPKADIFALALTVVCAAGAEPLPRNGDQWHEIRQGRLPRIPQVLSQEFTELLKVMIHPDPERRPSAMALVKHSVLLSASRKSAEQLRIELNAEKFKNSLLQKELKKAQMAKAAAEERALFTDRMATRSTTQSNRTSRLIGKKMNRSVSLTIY
Sequence of Oxytocin receptor (P30559 whole entry): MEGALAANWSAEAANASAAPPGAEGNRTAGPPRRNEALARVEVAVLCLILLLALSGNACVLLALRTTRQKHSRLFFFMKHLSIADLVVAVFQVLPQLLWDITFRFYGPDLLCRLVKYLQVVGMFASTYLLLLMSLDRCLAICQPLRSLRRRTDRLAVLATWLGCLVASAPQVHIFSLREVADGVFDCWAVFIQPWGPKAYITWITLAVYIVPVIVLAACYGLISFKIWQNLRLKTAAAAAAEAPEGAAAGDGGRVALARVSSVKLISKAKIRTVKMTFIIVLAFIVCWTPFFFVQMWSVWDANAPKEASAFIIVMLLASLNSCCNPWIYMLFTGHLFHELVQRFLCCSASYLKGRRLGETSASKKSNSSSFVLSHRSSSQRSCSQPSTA
Sequence of Serine/threonine-protein phosphatase PP1-alpha catalytic subunit (P62136 whole entry): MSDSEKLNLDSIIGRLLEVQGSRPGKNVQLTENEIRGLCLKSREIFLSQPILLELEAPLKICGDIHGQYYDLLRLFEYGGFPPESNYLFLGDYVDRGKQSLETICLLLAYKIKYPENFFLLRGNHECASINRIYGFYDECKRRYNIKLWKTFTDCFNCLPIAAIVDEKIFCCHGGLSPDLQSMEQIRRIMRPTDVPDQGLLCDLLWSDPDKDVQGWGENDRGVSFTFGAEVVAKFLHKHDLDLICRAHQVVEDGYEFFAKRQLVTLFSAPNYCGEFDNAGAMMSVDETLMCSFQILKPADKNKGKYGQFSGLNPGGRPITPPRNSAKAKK
Sequence of G2/mitotic-specific cyclin-B1 (P14635 whole entry): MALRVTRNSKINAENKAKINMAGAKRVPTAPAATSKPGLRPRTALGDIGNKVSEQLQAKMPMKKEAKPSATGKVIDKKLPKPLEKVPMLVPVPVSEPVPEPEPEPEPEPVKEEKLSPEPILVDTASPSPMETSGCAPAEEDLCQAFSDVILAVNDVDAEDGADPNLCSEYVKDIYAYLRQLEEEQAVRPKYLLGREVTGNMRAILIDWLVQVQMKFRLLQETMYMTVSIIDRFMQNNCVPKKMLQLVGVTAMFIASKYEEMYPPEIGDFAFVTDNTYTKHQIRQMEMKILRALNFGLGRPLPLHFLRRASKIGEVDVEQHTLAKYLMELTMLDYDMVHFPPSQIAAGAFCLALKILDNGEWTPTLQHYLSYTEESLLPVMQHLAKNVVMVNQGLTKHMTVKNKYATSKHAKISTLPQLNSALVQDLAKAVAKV
Sequence of Phospholipase A2 (P04054 whole entry): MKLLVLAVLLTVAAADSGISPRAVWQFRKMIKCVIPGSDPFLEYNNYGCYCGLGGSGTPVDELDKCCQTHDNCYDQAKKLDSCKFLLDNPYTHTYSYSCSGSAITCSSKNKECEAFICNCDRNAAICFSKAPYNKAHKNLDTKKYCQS
Sequence of Vasopressin V1a receptor (P37288 whole entry): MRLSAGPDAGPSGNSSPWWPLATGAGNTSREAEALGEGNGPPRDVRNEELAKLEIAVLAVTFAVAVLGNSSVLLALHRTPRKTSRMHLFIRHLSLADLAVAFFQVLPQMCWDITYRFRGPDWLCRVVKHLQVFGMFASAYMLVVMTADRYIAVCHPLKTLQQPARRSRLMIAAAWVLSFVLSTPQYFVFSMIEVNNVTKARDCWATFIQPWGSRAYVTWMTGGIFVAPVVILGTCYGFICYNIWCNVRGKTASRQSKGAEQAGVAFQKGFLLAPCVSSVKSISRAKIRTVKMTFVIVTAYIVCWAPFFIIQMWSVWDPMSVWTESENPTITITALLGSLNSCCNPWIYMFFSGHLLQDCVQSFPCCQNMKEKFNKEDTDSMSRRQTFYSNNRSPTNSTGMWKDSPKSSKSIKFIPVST

Compound: Cc1[nH]c2ccccc2c1C(=O)CN1C(=O)NC(C)(c2ccc(Cl)cc2Cl)C1=O (centres undefined)
- CC50 [1]: 13.9 µM (active)
- EC50 (Vasopressin V1a receptor): > 29.9 µM (not active)
- EC50 (Oxytocin receptor): > 29.9 µM (not active)
- EC50 [2]: 7.59 µM (active)
- CC50 [3]: 38.2 µM (active)

Compound: O=C(Nc1nc(-c2ccccn2)cs1)C1CC(=O)N(c2ccc3c(c2)OCCO3)C1 (centres undefined)
- IC50 [4]: 5.98 µM (active)
- IC50 [5]: > 67 µM (not active)
- IC50 (Nonstructural protein 1): 13.5 µM (active)

Compound: O=C(N=Nc1c(O)[nH]c2ccc(Br)cc12)c1ccccc1-n1cccc1
- EC50 [6]: > 49.7 µM (not active)
- EC50 (Wee1-like protein kinase): > 49.7 µM (not active)
- CC50 [7]: 1.15 µM (active)
- CC50 [8]: 4.28 µM (active)
- IC50 [9]: > 80 µM (inactive)
- IC50 (cells): > 50 µM (active)

Compound: Cc1ccc(N2C(=O)/C(=C\Nc3ccccc3-c3nnc(S)nc3O)c3ccccc3C2=O)c(C)c1
- IC50 (Aminopeptidase N): 27.4 µM (active)
- IC50 [10]: 39.9 µM (active)
- IC50 (Cysteine protease ATG4B): 14 µM (active)
- IC50 (Phospholipase A2): 10 µM (active)
- IC50 [11]: 3.83 µM (active)
- EC50 [2]: > 53 µM (inactive)
- IC50 [12]: > 20 µM (inactive)

Compound: COc1ccccc1/C=C/C1=NC(=C\C=C/c2ccccc2)/C(=O)O1
- IC50 (NS3): 24.1 µM (not active)
- IC50 [13]: > 100 µM (active)
- EC50 [14]: > 260 µM (inactive)

From ChEMBL document CHEMBL1201862, “PubChem BioAssay data set” (2004)
